From publication PMC5384001 (Scientific Reports, 2017)
Several values for one entry are separate records, joined by “and”; a condition that tells them apart may be missing. Equal values may be shown once.

Columns and labels:
GluN3B LBD = biological target: GluN3B LBD; design: method as in PMID 18636091; details: cited from earlier work
GluD2-Lc(Y543Q) = biological target: T1, GluD2-Lc(Y543Q) (Rattus norvegicus, UniProt Q63226, A654T/Y543Q); assay: Two-electrode voltage clamp in Xenopus oocytes, inhibition of spontaneous currents; format: cell-based; details: fraction of spontaneous current inhibited by saturating D-serine
T1 construct: the function of full-length receptors as well, we introduced them into the GluD2 lurcher mutant (GluD2-Lc); expressed in transfected cells; host or cells: Xenopus laevis oocytes injected with cRNA
T1 sequence (Q63226 24-1007 Y543Q/A654T): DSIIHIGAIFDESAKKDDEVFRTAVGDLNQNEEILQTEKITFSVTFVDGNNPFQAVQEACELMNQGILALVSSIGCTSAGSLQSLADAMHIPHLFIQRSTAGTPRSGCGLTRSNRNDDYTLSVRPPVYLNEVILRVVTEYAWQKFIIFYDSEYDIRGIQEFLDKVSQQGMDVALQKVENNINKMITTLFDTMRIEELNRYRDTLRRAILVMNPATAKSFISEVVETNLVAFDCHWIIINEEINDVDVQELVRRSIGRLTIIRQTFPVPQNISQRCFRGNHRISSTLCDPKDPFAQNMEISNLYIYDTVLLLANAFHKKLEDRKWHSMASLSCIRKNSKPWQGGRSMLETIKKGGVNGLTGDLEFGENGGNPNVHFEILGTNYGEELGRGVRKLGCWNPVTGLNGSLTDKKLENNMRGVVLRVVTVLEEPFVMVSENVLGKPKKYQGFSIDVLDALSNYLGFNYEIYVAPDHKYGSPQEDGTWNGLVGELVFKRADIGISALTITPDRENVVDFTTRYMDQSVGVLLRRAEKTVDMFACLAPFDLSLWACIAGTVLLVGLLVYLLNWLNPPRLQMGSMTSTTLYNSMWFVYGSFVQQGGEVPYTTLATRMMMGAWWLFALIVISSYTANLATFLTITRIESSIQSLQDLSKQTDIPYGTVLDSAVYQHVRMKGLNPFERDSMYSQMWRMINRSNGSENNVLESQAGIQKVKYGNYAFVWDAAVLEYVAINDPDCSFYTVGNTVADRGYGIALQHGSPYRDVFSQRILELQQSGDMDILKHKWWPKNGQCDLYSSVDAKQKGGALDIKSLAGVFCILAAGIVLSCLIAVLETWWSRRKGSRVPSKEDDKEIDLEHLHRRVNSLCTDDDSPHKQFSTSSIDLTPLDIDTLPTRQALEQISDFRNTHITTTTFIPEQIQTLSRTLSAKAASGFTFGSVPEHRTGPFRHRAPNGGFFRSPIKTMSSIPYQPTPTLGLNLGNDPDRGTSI

[1] = biological target: T2, GluN1-1a-(H)GluD2 with GluN2A (Rattus norvegicus, UniProt P35439, E751N/F753V/F754A/G537S/L752T/Q536Y/R755D/S756R/T749V/Y535D); assay: Two-electrode voltage clamp in Xenopus oocytes, current response; format: cell-based; details: 100 μM glutamate plus 1 mM D-serine, n = 23
T2 construct: expressed in transfected cells; host or cells: Xenopus laevis oocytes injected with cRNA
Method: Oocytes were obtained by surgically removing parts of the ovaries from Xenopus laevis (Nasco, Fort Atkinson, WI, USA) anaesthetised with 1.5 g/L 3-aminobenzoic acid ethylester (Sigma, Taufkirchen, Germany). The ovary clippings were digested with 784 U/mL (4 mg/mL) collagenase type I (Worthington, Lakewood, NJ, USA) in Ca^2+-free Barth’s solution (88 mM NaCl, 1.1 mM KCl, 2.4 mM NaHCO3, 0.8 mM MgSO4, 15 mM HEPES-NaOH, pH 7.6) with gentle agitation for 1.5–2 h at 20 °C to remove the follicular cell layer. After stopping the collagenase digestion by washing with Barth’s solution (88 mM NaCl, 1.1 mM KCl, 2.4 mM NaHCO3, 0.3 mM Ca(NO3)2, 0.4 mM CaCl2, 0.8 mM MgSO4, 15 mM HEPES-NaOH, pH 7.6), defolliculated oocytes of stages V and VI were selected and maintained at 16 °C in Barth’s solution supplemented with 100 μg/mL gentamicin, 40 μg/mL streptomycin, and 63 μg/mL penicillin. Oocytes were injected with 11 ng cRNA (10 ng of each cRNA for co-expression of GluN1 and GluN2A) using a nanoliter injector (WPI, Sarasota, FL, USA). Four days after cRNA injection, current responses were recorded under voltage clamp at –70 mV with a Turbo Tec-10CD amplifier (npi electronic, Tamm, Germany) controlled by Patchmaster software (HEKA, Lambrecht, Germany). Currents were filtered with a 20 Hz low-pass filter and then digitised with a sampling rate of 50 Hz. Recording electrodes were pulled from borosilicate glass (Hilgenberg, Malsfeld, Germany) with an L/M-3P-A vertical pipette puller (List-Medical), filled with 3 M KCl, and had resistances of 0.5–5 MΩ (voltage electrode) or 0.5–1.5 MΩ (current electrode). Recordings were performed in a 50 μL chamber under constant superfusion with extracellular solution at a flow rate of 3–5 mL/min. […] Finally, Ba-NFR and then NMDGR were applied again to check for reversibility.

SMILES: N[C@H](CO)C(=O)O [D-serine]
- Kd (GluN3B LBD): 163 nM
- D-serine efficacy Mean ± SEM (GluD2-Lc(Y543Q)): 36% and 36.2 ± 0.6%
- current response [1]: 5.8 ± 1.0 nA
